Data as given in US12116611B2, “Method of treating intellectual disability, autism and epilepsy associated with an IQSEC2 mutation and for identifying medicaments for treating the same” (TECHNION RESEARCH & DEVELOPMENT FOUNDATION LIMITED, priority 2018, dated 2024).
“And” between values parts separate entries of the source, which are not always exact repeats. Equal values may be shown once. “Also recorded” adds a separate entry of the source. Read-outs that look alike come from different tables or passages of the source.

How the values were obtained:
[1] = system: calmodulin-IQSEC2 interaction; test: Binding of luciferase-IQSEC2 to calmodulin-sepharose in vitro; parameters: species or system human; conditions: for EC50: read-out: Free calcium concentration for half-maximal binding of calcium-calmodulin to IQSEC2
Method: The binding of wild type and mutant IQSEC2 to calmodulin was assessed in vitro using calmodulin-sepharose (BioVision, Milipetas, CA). Extracts from stably transfected cells were prepared in either buffer A [50 mM Tris pH 7.5; 150 mM NaCl, 10 mg/ml BSA; 5 mM EGTA and 0.1% Triton X-100] or buffer B [10 mM Tris pH 7.5; 150 mM NaCl, 5 mM EGTA, 5% glycerol, 0.5% Triton X-100]. Extracts were clarified by centrifugation at 14000 rpm at 4° C. to remove insoluble debris and the amount of luciferase activity in the extract assessed using the Promega luciferase assay system and a Turner TD 20/20 luminometer. Extracts (10,000-100,000 luciferase units) were then incubated in buffer A or buffer B with or without CaCl2 in a total volume of 1 cc. The concentration of free calcium in the incubation conditions was calculated using the maxchelator algorithm (maxchelator.stanford.edu) which is based on the ionic strength, pH, temperature and dissociation constant of EGTA for calcium. The concentration of free calcium used in these studies ranged from 0.73 nM to 2 mM. 10 μl of calmodulin-sepharose was added to the incubation and mixed on a rotary apparatus for 3-4 hours. The calmodulin-sepharose was washed twice with binding buffer, resuspended in 100 μl of luciferase reagent lysis buffer and 20 μl was assessed for luciferase activity.
Investigation of this interaction in a cell-free system in vitro using luciferase tagged IQSEC2 and calmodulin coupled to sepharose allowed for the precise control of calcium concentration which is known to dramatically affect the conformation and interactions of calmodulin with other proteins. In this system luciferase activity associated with calmodulin sepharose was used a quantitative readout of the calmodulin-IQSEC2 interaction. The IQ motif is present in over 100 proteins and in some cases preferentially binds to calcium-calmodulin while in other cases it binds preferentially to calcium-free calmodulin (apocalmodulin) (Bahler and Rhoads, 2002). […] However, when the effect of calcium on the IQSEC2 calmodulin interaction was assessed, it was observed that calcium increased the binding of calmodulin to IQSEC2. Upon reviewing the buffers used by the research group in assessing binding of IQSEC2 to calmodulin, it was discovered that the concentration of Triton X-100 used in the binding and wash buffers was differed. […] Triton X-100 binds to most proteins via both hydrophobic and polar interactions [Singh and Kishore, 2006] and may thereby disrupt protein-protein interactions at high concentrations. […] The binding of wild type or A350V luciferase-IQSEC2 to calmodulin was assessed over a wide range of calcium concentrations.

[2] = molecular target: calmodulin (Homo sapiens, UniProt P0DP23); conditions: Persechini and Cronk et al, 1999; read-out: Kd of calcium for calmodulin; cited from earlier work
[3] = system: endogenous Arf6; test: Arf6-GTP GGA3 pulldown assay in transfected HEK293T cells, with or without ionomycin; format: cell-based, human
Method: For the assessment of Arf6-GTP using a GGA-3 pulldown assay and western blot, HEK293T cells were transfected with FLAG-tagged WT, A350V, or R359C IQSEC2 in pCAGGS vector by calcium phosphate. Twenty-four hours after transfection, the cultures were treated with 5 μM ionomycin or ethanol vehicle for 5 mins, then lysed in 50 mM Tris-HCl, pH 7.5, 100 mM NaCl, 2 mM MgCl2, 0.2% SDS, 0.5% sodium deoxycholate, 1% Triton X-100, 10% glycerol, and 1× Halt protease inhibitor cocktail. An Arf6-GTP pull-down assay was carried out as described (Shoubridge et al, 2010). Briefly, lysates were cleared by centrifugation at 10,000 rpm for 10 min and incubated with GGA3:GST on glutathione-sepharose beads for 5 hours at 4° C. The beads were washed and bound proteins were eluted and probed by immunoblot with rabbit anti-Arf6 (1:750, Cell Signaling #5740). Lysates were also probed against total Arf6 and with rabbit anti-FLAG (1:1000; Covance #PRB-132P) to detect expression of FLAG-IQSEC2. Bands were visualized with the use of a LiCor Odyssey imaging system and quantified with Image Studio Lite. Each band was normalized to the untreated sham-transfected control. The data were statistically analyzed by one-way ANOVA followed by Tukey's Multiple Comparison Test for post-hoc analysis.
The activation of Arf6 (Arf6-GTP) by wild type, A350V, or R359C IQSEC2 in a GGA3 pulldown assay was also assessed. HEK 293T cells were transiently transfected with constructs to express either wild type, A350V or R359C IQSEC2, and endogenous Arf6 activation was tested with or without treatment with the calcium ionophore ionomycin. […] Cell lysates were incubated with beads coated with GGA3:GST to isolate the GTP-bound Arfs, and bound Arf6 was assessed by immunoblot (FIG. 4A).

Structure (SMILES) | Change in binding of calmodulin to wild type IQSEC2 ([1]; 100 μM calcium, high (0.5%) Triton X-100) | Change in binding of calmodulin to wild type IQSEC2 ([1]; 100 uM calcium, low (0.1%) Triton X-100) | EC50 ([1]; A350V IQSEC2, 0.1% Triton X-100) | EC50 ([1]; wild type IQSEC2, 0.1% Triton X-100) | Kd [2] | Effect of ionomycin on Arf6 activation ([3]; HEK293T cells transfected with A350V IQSEC2) | Effect of ionomycin on Arf6-GTP induction ([3]; HEK293T cells transfected with R359C IQSEC2) | Arf6 activation (Arf6-GTP) compared to sham transfected cells ([3]; HEK293T cells transfected with wild type IQSEC2, 5 μM ionomycin for 5 mins)
[Ca+2] [calcium] | several fold decrease; also recorded: significant decrease | several fold increase; also recorded: significant increase | ~1000 nM | ~1000 nM | 1000 nM and ~1000 nM |  |  | 
C[C@H](CCC(=O)O)C[C@H](C)C[C@H](C)C(=O)/C=C(\O)[C@H](C)C[C@H](C)C/C=C/[C@@H](C)[C@@H](O)[C@@H](C)[C@@H](O)C[C@@H]1CC[C@@](C)([C@H]2CC[C@@](C)([C@@H](C)O)O2)O1 [ionomycin] |  |  |  |  |  | did not further increase Arf6 activation | unresponsive | 8.03±1.89 fold increase
